Results on 38 molecules are retold here after PubChem BioAssay (NCI).

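Exposure lasted 48 hours, with cells grown in 96-well plates and compounds tested at five concentrations. GI50: concentration for 50% inhibition of growth. Definition used: TGI = concentration required for complete inhibition of growth.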

The test concerns MDA-MB-468 breast. Kind of test: NCI anticancer screen, dose series, 48 h.

Turning to `Cc1ccc(C)c(-c2csc(Nc3ccc(C)c(C)c3)n2)c1`, the GI50 was 63100 nM and the TGI was > 100000 nM.
For `CC[C@]12C=CCN3CC[C@]4(C(=C(C(=O)OC)C1)Nc1cc5c(cc14)[C@@H]1[C@H](O5)[C@@H](O)[C@@]4(CC)CC(C(=O)OC)=C5Nc6cc(OC)ccc6[C@@]56CCN1[C@@H]46)[C@@H]32`, the GI50 was 94.4 nM and the TGI was 1340 nM.
`O=C(CCCCCCNC(=O)C(O)(O)C(F)(F)F)Nc1ccc(Br)cc1`: the GI50 was 821 nM and the TGI turned out to be 2680 nM.
Turning to `C=C(C)[C@@H]1CC[C@]2(C)[C@H](CC[C@@H]3[C@H]4[C@H]5OC[C@@]4(CCC5(C)C)CC[C@]32C)[C@@]1(C)CCCN`, the GI50 is 1580 nM and the TGI came to 3050 nM.
Regarding `CCCN(CCC)c1ccc(/C=N/NC(=O)c2cccnc2)c(Cl)c1`, the GI50 is 197 nM and the TGI stood at 631 nM.
In the case of `COc1cc(C(=O)c2cc3c(cc2C)OCO3)cc(OC)c1OC`, the GI50 is 31.1 nM.
As to `Cc1ccc(S(=O)(=O)N2CCc3ccc(O)c4c3C2Cc2cc(Cl)ccc2-4)cc1` (stereo not given), the GI50 was 707 nM and the TGI was found to be 1920 nM.
Consider `CCOC(=O)c1c(C(F)(F)F)n([O-])c2ccc(OC)cc2[n+]1=O`, for which the GI50 was 2580 nM and the TGI amounted to 7410 nM.
With `COc1ccc(NC(=O)c2sc3nc(C)c(C(O)c4ccccc4)cc3c2N)cc1` (stereo not given), the GI50 is 1900 nM and the TGI turned out to be 70100 nM.
`CC(=O)OC[C@]12CC[C@@H](C(=O)/C=C/c3cccnc3)[C@@H]1[C@H]1CC[C@@H]3[C@@]4(C)CC[C@H](OC(C)=O)C(C)(C)[C@@H]4CC[C@@]3(C)[C@]1(C)CC2`: the GI50 is 1770 nM and the TGI was determined as 4410 nM.
Consider `C[C@@H]1C=C2C(=O)O[C@@H]3CC[C@H](C1)[C@]23O`, for which the GI50 is 1750 nM and the TGI was 5500 nM.
As for `Cc1[nH]c(=O)[nH]c(=O)c1CO`, the GI50 was > 100000 nM and the TGI was > 100000 nM.
With `COc1ccc([N+](=O)[O-])c(S(=O)(=O)c2ccc(Cl)cc2)n1`, the GI50 is 1930 nM and the TGI stood at 4760 nM.
In the case of `CC(=O)N=c1ccc2nc3c(cc(N)c4ccccc43)oc-2c1`, the GI50 was 274 nM and the TGI was 1400 nM.
For `COc1cc2nc(Nc3cccc(F)c3)nc(Nc3cc(C)[nH]n3)c2cc1OC`, the GI50 was 1630 nM and the TGI was found to be 3230 nM.
On to `CC(C)n1c2c([n+](C)c1/C=C/c1ccccc1)C(=O)c1ccccc1C2=O`, for which the GI50 was < 10 nM and the TGI was 14.8 nM.
For `COc1ccccc1CNCCCN1C(=O)c2ccc3c4c(ccc(c24)C1=O)C(=O)N(CCCNCCCN)C3=O`, the GI50 is 246 nM and the TGI was 2240 nM.
The corresponding values for `COC1=CC(c2ccc[nH]2)=N/C1=C\c1[nH]c(C)c(C(=O)CCCCC(=O)Nc2ccccc2)c1C` are 1720 nM and 3660 nM.
For the molecule `COC(=O)C1=C(C(=O)OC)C23C=C(C)C1C2=C(C)C1(CC1)[C@@](C)(O)C3=O` (stereo not given in full), the GI50 is 181 nM and the TGI was 421 nM.
For the molecule `COC(=O)CCC/C=C\C[C@H]1C=CC(=O)/C1=C/C[C@@H](O)C/C=C\CC(F)(F)F`, the GI50 was 1740 nM and the TGI turned out to be 3770 nM.
For the molecule `COc1ccc(-c2nc(-c3nc4ccc(OC)cc4[nH]3)cc3c2[nH]c2ccccc23)cc1`, the GI50 was 3160 nM and the TGI is > 100000 nM.
Consider `COc1cc(-c2cc(-c3nc4ccc(Cl)cc4[nH]3)[nH]n2)cc(OC)c1OC`, for which the GI50 is 2330 nM and the TGI was found to be 13500 nM.
As for `CCCCCCCC[N+](C)(CCCCCCCC)CCCCCCCC`, the GI50 is 202 nM and the TGI turned out to be 901 nM.
As to `CCn1cnc2c(Nc3cccc(Cl)c3)nc(N[C@@H]3CCCC[C@@H]3N)nc21`, the GI50 is 1860 nM and the TGI was found to be 4360 nM.
In the same order, the values of `Cn1cc(C2=C(c3cn(CCN)c4ccccc34)C(=O)NC2=O)c2ccccc21` are 4730 nM and 13400 nM.
Turning to `Nc1ccc(/C=N/Nc2ccnc3c(N)cccc23)c2cccnc12`, the GI50 was 1390 nM and the TGI stood at 2990 nM.
In the case of `N#Cc1ccnc(N2C(=O)CC[C@H]2C(=O)N(c2cncc(F)c2)[C@H](C(=O)NC2CC(F)(F)C2)c2ccccc2Cl)c1`, the GI50 was 28400 nM and the TGI is > 100000 nM.
In the same order, the values of `COc1ccc(/C=C/c2n[nH]c3ccc(N4CCOC4=O)cc23)cc1` are 2440 nM and 4720 nM.
With `COc1cc(/C=C2\COc3ccc(O)c(O)c3C2=O)cc(OC)c1`, the GI50 is 1910 nM and the TGI worked out at 6690 nM.
Take `COc1ccc(C2=NN(C(C)=O)C(c3cn(-c4ccccc4)nc3-c3ccc(Cl)cc3)C2)cc1` (stereo not given): the GI50 was > 100000 nM and the TGI was > 100000 nM.
On to `CCCc1nc2c(C)cc(-c3nc4ccccc4n3C)cc2n1Cc1ccc(-c2ccccc2C(=O)O)cc1`, for which the GI50 was 37400 nM and the TGI was > 100000 nM.
With `C=C1C(=O)O[C@H]2[C@H]1CC/C(COC(=O)NCc1c[nH]c3ccc(Cl)cc13)=C\CC[C@@]1(C)O[C@@H]21`, the GI50 was 913 nM and the TGI was 2500 nM.
Consider `NS(=O)(=O)c1ccc(CCN=C=S)cc1`, for which the GI50 was 380 nM and the TGI amounted to 2860 nM.
The corresponding values for `CSc1nc2sc3cc(Cl)ccc3n2c(=N)c1C#N` are 2130 nM and 20000 nM.
As for `CCOC(=O)c1sc(Nc2ccc(Cl)cc2)nc1C`, the GI50 was 1560 nM and the TGI was determined as 4240 nM.
Regarding `NCCC(O)(P(=O)(O)O)P(=O)(O)O`, the GI50 is > 100000 nM and the TGI is > 100000 nM.
As to `Nc1c(C(=O)Nc2ccccc2Cl)sc2nc3c(cc12)CCCCCC3`, the GI50 is 2250 nM and the TGI amounted to 12000 nM.
As for `C[C@H]1[C@H](C)CC[C@]2(C(=O)O)CC[C@]3(C)C(=CC[C@@H]4[C@@]5(C)C/C(=C/c6ccco6)C(=O)C(C)(C)[C@@H]5CC[C@]43C)[C@H]12`, the GI50 was 4070 nM and the TGI is 17400 nM.
